# Test results from patent US20250011285A1, “CYP11A1 INHIBITORS” (ORION CORPORATION, priority 2021, published 2025).
# Target: T1, CYP11A1 (Homo sapiens, UniProt P05108)
# T1 construct: human H295R adrenocortical carcinoma cell line was used as source of enzyme; endogenous in cells; host or cells: H295R human adrenocortical carcinoma cells
# T1 sequence (P05108 40-521): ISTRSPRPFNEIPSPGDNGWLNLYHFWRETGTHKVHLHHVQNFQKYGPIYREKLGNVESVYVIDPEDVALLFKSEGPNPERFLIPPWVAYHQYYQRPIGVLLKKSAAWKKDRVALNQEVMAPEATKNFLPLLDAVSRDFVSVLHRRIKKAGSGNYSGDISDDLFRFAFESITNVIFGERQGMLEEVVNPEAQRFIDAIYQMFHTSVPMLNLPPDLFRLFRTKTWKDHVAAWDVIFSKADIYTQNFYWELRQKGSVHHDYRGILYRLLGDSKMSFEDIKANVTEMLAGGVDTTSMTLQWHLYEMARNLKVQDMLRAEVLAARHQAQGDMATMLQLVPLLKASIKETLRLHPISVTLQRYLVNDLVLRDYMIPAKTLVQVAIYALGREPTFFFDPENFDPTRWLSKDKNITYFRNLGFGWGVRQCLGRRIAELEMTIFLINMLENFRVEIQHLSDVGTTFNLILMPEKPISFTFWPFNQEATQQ
# Experiment: CYP11A1 inhibition, isocaproic acid release assay (IARA) in H295R cells
# Format: cell-based
# Conditions: human H295R adrenocortical carcinoma cells treated three days, 3 nM [24,25-3H]-labelled cholesterol, 1% DMSO; read-out: IC50 on CYP11A1 inhibition (Group)
# Experimental: The ability of the test compounds to inhibit conversion of cholesterol to pregnenolone and isocaproic acid was measured by modification of isocaproic acid release assay (IARA) described by Ruangwises et al. (Biology of Reproduction 1991; 45(1):143-50) except that human H295R adrenocortical carcinoma cell line was used as source of enzyme and extraction was done with dextran-coated charcoal suspension (Isomaa, V. et al., Endocrinology 1982; 111(3):833-843). […] To determine the half maximal inhibitory concentration (IC50) of the test compounds on CYP11A1 inhibition, the cells were treated for three days with increasing concentrations of the test compounds in the presence of 3 nM [24,25-3H]-labelled cholesterol (American Radiolabelled Chemicals).
# The final DMSO concentration was 1%. Cell culture medium was extracted with dextran-coated charcoal suspension and the radiolabelled isocaproic acid was determined by mixing 100 μl of supernatant fraction in 200 μl of scintillation fluid (OptiPhase SuperMix, Perkin Elmer). Radioactivity was measured using a Microbeta scintillation counter (1450 MicroBeta Trilux, Wallac). All the test compounds were studied at 10 concentrations in duplicates.
row,SMILES,IC50
1,"COc1cc(OCc2ccc(C(=O)N(C)C)cc2)ccc1CN1Cc2ccccc2C1 [Compound 31, 4-((4-(Isoindolin-2-ylmethyl)-3-methoxyphenoxy)methyl)-N,N-dimethyl-benzamide]",351 to 1500 nM
2,"COc1cc(CN2Cc3ccc(S(C)(=O)=O)cc3C2)ccc1OCc1ccc(C(=O)N(C)C)cc1 [Compound 32, 4-((2-Methoxy-4-((5-(methylsulfonyl)isoindolin-2-yl)methyl)phenoxy)methyl)-N,N-dimethylbenzamide]",351 to 1500 nM
3,"COc1cc(CN2Cc3ccccc3C2)ccc1OCc1ccc(C(=O)N(C)CCOC(C)=O)cc1 [Compound 36, 2-(4-((4-(Isoindolin-2-ylmethyl)-2-methoxyphenoxy)methyl)-N-methyl-benzamido)ethyl acetate]",151 to 350 nM
4,"COCCc1cc(CN2Cc3ccccc3C2)ccc1OCC1CCN(S(C)(=O)=O)CC1 [Compound 37, 2-(3-(2-Methoxyethyl)-4-((1-(methylsulfonyl)piperidin-4-yl)methoxy)benzyl)-isoindoline]",151 to 350 nM
5,"COC(=O)c1ccc(COc2ccc(CN3Cc4ccccc4C3)cc2[N+](=O)[O-])cc1 [Compound 39, Methyl 4-((4-(isoindolin-2-ylmethyl)-2-nitrophenoxy)methyl)benzoate]",351 to 1500 nM
6,"CS(=N)(=O)c1ccc(COc2ccc(CN3Cc4ccccc4C3)c3cccnc23)cc1 (stereo not shown) [Compound 44, Imino(4-(((5-(isoindolin-2-ylmethyl)quinolin-8-yl)oxy)methyl)phenyl)(methyl)-λ^6-sulfanone]",< 150 nM
7,"CS(=N)(=O)c1ccc(COc2ccc(CN3Cc4ccccc4C3)c3ocnc23)cc1 (stereo not shown) [Compound 45, Imino(4-(((7-(isoindolin-2-ylmethyl)benzo[d]oxazol-4-yl)oxy)methyl)phenyl)-(methyl)-λ^6-sulfanone]",351 to 1500 nM
8,"CS(=O)(=O)N1CCC(COc2ccc(CN3Cc4ccccc4C3)c3ncoc23)CC1 [Compound 46, 4-(Isoindolin-2-ylmethyl)-7-((1-(methylsulfonyl)piperidin-4-yl)methoxy)-benzo[d]oxazole]",351 to 1500 nM
9,"Cn1ncc2c(CN3Cc4ccccc4C3)ccc(OCC3CCN(S(C)(=O)=O)CC3)c21 [Compound 47, 4-(Isoindolin-2-ylmethyl)-1-methyl-7-((1-(methylsulfonyl)piperidin-4-yl)-methoxy)-1H-indazole]",< 150 nM
10,"CC(=O)c1cc(CN2Cc3ccccc3C2)ccc1OCC1CCN(S(C)(=O)=O)CC1 [Compound 48, 1-(5-(Isoindolin-2-ylmethyl)-2-((1-(methylsulfonyl)piperidin-4-yl)methoxy)-phenyl)ethan-1-one]",< 150 nM
11,"CCC(=O)N1CCC(COc2ccc(CN3Cc4ccccc4C3)cc2C(C)=O)CC1 [Compound 49, 1-(4-((2-Acetyl-4-(isoindolin-2-ylmethyl)phenoxy)methyl)piperidin-1-yl)propan-1-one]",151 to 350 nM
12,"CC(=O)c1cc(CN2Cc3ccccc3C2)ccc1OCC1CCC(S(C)(=O)=O)CC1 (stereo not shown) [Compound 50, 1-(5-(Isoindolin-2-ylmethyl)-2-((4-(methylsulfonyl)cyclohexyl)methoxy)-phenyl)ethan-1-one]",151 to 350 nM
13,"CS(=O)(=O)N1CCC(COc2ccc(CN3Cc4ccccc4C3)c3cccnc23)CC1 [Compound 51, 5-(Isoindolin-2-ylmethyl)-8-((1-(methylsulfonyl)piperidin-4-yl)methoxy)-quinoline]",< 150 nM
14,"CN(C)C(=O)c1ccc(COc2ccc(CN3Cc4ccccc4C3)cc2N)cc1 [Compound 52, 4-((2-Amino-4-(isoindolin-2-ylmethyl)phenoxy)methyl)-N,N-dimethyl-benzamide]",351 to 1500 nM
15,"CN(C)C(=O)c1ccc(COc2ccc(CN3Cc4ccccc4C3)cc2NS(C)(=O)=O)cc1 [Compound 53, 4-((4-(Isoindolin-2-ylmethyl)-2-(methylsulfonamido)phenoxy)methyl)-N,N-dimethylbenzamide]",351 to 1500 nM
16,"CS(=O)(=O)c1ccc(COc2ccc(CN3Cc4ccccc4C3)cc2C(N)=O)cc1 [Compound 54, 5-(Isoindolin-2-ylmethyl)-2-((4-(methylsulfonyl)benzyl)oxy)benzamide]",< 150 nM
17,CS(=O)(=O)N1CCC(COc2ccc(CN3Cc4ccccc4C3)cc2C(F)(F)F)CC1 [Compound 56],151 to 350 nM

# Second part, the compound after the results:
row,IC50,SMILES
1,< 150 nM,"CS(=N)(=O)c1ccc(COc2ccc(CN3Cc4ccccc4C3)cc2C#N)cc1 (stereo not shown) [Compound 33, 5-(isoindolin-2-ylmethyl)-2-((4-(S-methylsulfonimidoyl)benzyl)oxy)benzonitrile]"
2,< 150 nM,"COc1cc(CN2Cc3ccc(SC)cc3C2)ccc1OCc1ccc(C(=O)N(C)C)cc1 [Compound 34, 4-((2-Methoxy-4-((5-(methylthio)isoindolin-2-yl)methyl)phenoxy)methyl)-N,N-dimethylbenzamide]"
3,< 150 nM,"COCCN(C)C(=O)c1ccc(COc2ccc(CN3Cc4ccccc4C3)cc2OC)cc1 [Compound 35, 4-((4-(Isoindolin-2-ylmethyl)-2-methoxyphenoxy)methyl)-N-(2-methoxyethyl)-N-methylbenzamide]"
4,< 150 nM,"CS(=O)(=O)N1CCC(COc2ccc(CN3Cc4ccccc4C3)c3cn[nH]c23)CC1 [Compound 38, 4-(Isoindolin-2-ylmethyl)-7-((1-(methylsulfonyl)piperidin-4-yl)methoxy)-1H-indazole]"
5,< 150 nM,"CN(C)C(=O)c1ccc(COc2ccc(CN3Cc4ccccc4C3)cc2[N+](=O)[O-])cc1 [Compound 40, 4-((4-(isoindolin-2-ylmethyl)-2-nitrophenoxy)methyl)-N,N-dimethylbenzamide]"
6,< 150 nM,"CN(C)C(=O)c1ccc(COc2ccc(CN3Cc4ccccc4C3)c3cccnc23)cc1 [Compound 41, 4-(((5-(Isoindolin-2-ylmethyl)quinolin-8-yl)oxy)methyl)-N,N-dimethyl-benzamide]"
7,< 150 nM,"CC(=O)c1cc(CN2Cc3ccccc3C2)ccc1OCc1ccc(C(=O)N(C)C)cc1 [Compound 42, 4-((2-Acetyl-4-(isoindolin-2-ylmethyl)phenoxy)methyl)-N,N-dimethylbenzamide]"
8,< 150 nM,"CCS(=O)(=O)c1ccc(COc2ccc(CN3Cc4ccccc4C3)cc2C(C)=O)cc1 [Compound 43, 1-(2-((4-(Ethylsulfonyl)benzyl)oxy)-5-(isoindolin-2-ylmethyl)phenyl)ethan-1-one]"
